From BigSolDB 2.1

Cc1cccc2sc(NN)nc12
solubility (mole fraction) (in acetone, 273.15 K): 0.00958
solubility (mole fraction) (in acetone, 278.15 K): 0.0118
solubility (mole fraction) (in acetone, 283.15 K): 0.0142
solubility (mole fraction) (in acetone, 288.15 K): 0.0172
solubility (mole fraction) (in acetone, 293.15 K): 0.0203
solubility (mole fraction) (in acetone, 298.15 K): 0.024
solubility (mole fraction) (in acetone, 303.15 K): 0.0285
solubility (mole fraction) (in acetone, 308.15 K): 0.0335
solubility (mole fraction) (in acetone, 313.15 K): 0.0391
solubility (mole fraction) (in acetone, 318.15 K): 0.0456
solubility (mole fraction) (in ethanol, 273.15 K): 0.000807
solubility (mole fraction) (in ethanol, 278.15 K): 0.00103
solubility (mole fraction) (in ethanol, 283.15 K): 0.00131
solubility (mole fraction) (in ethanol, 288.15 K): 0.00165
solubility (mole fraction) (in ethanol, 293.15 K): 0.00203
solubility (mole fraction) (in ethanol, 298.15 K): 0.00252
solubility (mole fraction) (in ethanol, 303.15 K): 0.00313
solubility (mole fraction) (in ethanol, 308.15 K): 0.00377
solubility (mole fraction) (in ethanol, 313.15 K): 0.0046
solubility (mole fraction) (in ethanol, 318.15 K): 0.00555
solubility (mole fraction) (in ethyl acetate, 273.15 K): 0.00359
solubility (mole fraction) (in ethyl acetate, 278.15 K): 0.00453
solubility (mole fraction) (in ethyl acetate, 283.15 K): 0.00569
solubility (mole fraction) (in ethyl acetate, 288.15 K): 0.00696
solubility (mole fraction) (in ethyl acetate, 293.15 K): 0.00848
solubility (mole fraction) (in ethyl acetate, 298.15 K): 0.0101
solubility (mole fraction) (in ethyl acetate, 303.15 K): 0.0124
solubility (mole fraction) (in ethyl acetate, 308.15 K): 0.0147
solubility (mole fraction) (in ethyl acetate, 313.15 K): 0.0176
solubility (mole fraction) (in ethyl acetate, 318.15 K): 0.0209
solubility (mole fraction) (in isopropanol, 273.15 K): 0.000928
solubility (mole fraction) (in isopropanol, 278.15 K): 0.00123
solubility (mole fraction) (in isopropanol, 283.15 K): 0.00153
solubility (mole fraction) (in isopropanol, 288.15 K): 0.00191
solubility (mole fraction) (in isopropanol, 293.15 K): 0.00235
solubility (mole fraction) (in isopropanol, 298.15 K): 0.00288
solubility (mole fraction) (in isopropanol, 303.15 K): 0.00353
solubility (mole fraction) (in isopropanol, 308.15 K): 0.00429
solubility (mole fraction) (in isopropanol, 313.15 K): 0.00519
solubility (mole fraction) (in isopropanol, 318.15 K): 0.0062
solubility (mole fraction) (in methanol, 273.15 K): 0.000589
solubility (mole fraction) (in methanol, 278.15 K): 0.000758
solubility (mole fraction) (in methanol, 283.15 K): 0.00095
solubility (mole fraction) (in methanol, 288.15 K): 0.00119
solubility (mole fraction) (in methanol, 293.15 K): 0.00151
solubility (mole fraction) (in methanol, 298.15 K): 0.00185
solubility (mole fraction) (in methanol, 303.15 K): 0.00232
solubility (mole fraction) (in methanol, 308.15 K): 0.00284
solubility (mole fraction) (in methanol, 313.15 K): 0.00348
solubility (mole fraction) (in methanol, 318.15 K): 0.00422
solubility (mole fraction) (in n-butanol, 273.15 K): 0.00137
solubility (mole fraction) (in n-butanol, 278.15 K): 0.00168
solubility (mole fraction) (in n-butanol, 283.15 K): 0.00216
solubility (mole fraction) (in n-butanol, 288.15 K): 0.00263
solubility (mole fraction) (in n-butanol, 293.15 K): 0.00329
solubility (mole fraction) (in n-butanol, 298.15 K): 0.00403
solubility (mole fraction) (in n-butanol, 303.15 K): 0.00505
solubility (mole fraction) (in n-butanol, 308.15 K): 0.00616
solubility (mole fraction) (in n-butanol, 313.15 K): 0.00755
solubility (mole fraction) (in n-butanol, 318.15 K): 0.00904
solubility (mole fraction) (in n-propanol, 273.15 K): 0.00115
solubility (mole fraction) (in n-propanol, 278.15 K): 0.00143
solubility (mole fraction) (in n-propanol, 283.15 K): 0.00178
solubility (mole fraction) (in n-propanol, 288.15 K): 0.00218
solubility (mole fraction) (in n-propanol, 293.15 K): 0.00272
solubility (mole fraction) (in n-propanol, 298.15 K): 0.0033
solubility (mole fraction) (in n-propanol, 303.15 K): 0.00395
solubility (mole fraction) (in n-propanol, 308.15 K): 0.00481
solubility (mole fraction) (in n-propanol, 313.15 K): 0.00573
solubility (mole fraction) (in n-propanol, 318.15 K): 0.00696
solubility (mole fraction) (in toluene, 273.15 K): 0.00227
solubility (mole fraction) (in toluene, 278.15 K): 0.00276
solubility (mole fraction) (in toluene, 283.15 K): 0.00366
solubility (mole fraction) (in toluene, 288.15 K): 0.00473
solubility (mole fraction) (in toluene, 293.15 K): 0.00583
solubility (mole fraction) (in toluene, 298.15 K): 0.00736
solubility (mole fraction) (in toluene, 303.15 K): 0.00925
solubility (mole fraction) (in toluene, 308.15 K): 0.0116
solubility (mole fraction) (in toluene, 313.15 K): 0.0145
solubility (mole fraction) (in toluene, 318.15 K): 0.0178
solubility (mole fraction) (in water, 273.15 K): 7.03e-06
solubility (mole fraction) (in water, 278.15 K): 9.04e-06
solubility (mole fraction) (in water, 283.15 K): 1.18e-05
solubility (mole fraction) (in water, 288.15 K): 1.51e-05
solubility (mole fraction) (in water, 293.15 K): 1.96e-05
solubility (mole fraction) (in water, 298.15 K): 2.56e-05
solubility (mole fraction) (in water, 303.15 K): 3.21e-05
solubility (mole fraction) (in water, 308.15 K): 4.05e-05
solubility (mole fraction) (in water, 313.15 K): 5.05e-05
solubility (mole fraction) (in water, 318.15 K): 6.25e-05
